Data from patent US20250145665A1, “MACROCYCLIC PEPTIDES USEFUL AS MODULATORS OF TNF ALPHA” (Bristol-Myers Squibb Company, priority 2023, published 2025).
Starred links: 1 amine or outer side, 2 acyl side, 3 side chain; linkers in the order of their positions; H or OH if unused. Positions of bridges follow the written chain, without caps; N, C: chain ends. Non-standard residues stand in square brackets, D forms with d. Residues, ends and D or L forms follow the SMILES beside them. *: point of attachment. X39 = Cn1nc(C(=O)NCc2ccc(-c3ccc(C[C@H](N[*:1])C(=O)[*:2])cc3)cc2)c2ccccc21; X5 = Cn1nc(C(=O)Nc2ccc(-c3ccc(C[C@H](N[*:1])C(=O)[*:2])cc3)cc2)c2ccccc21; X47 = O=C(Nc1ccc(-c2ccc(C[C@H](N[*:1])C(=O)[*:2])cc2)cc1)c1coc2ccccc12; Bip(4'-NH) = O=C([C@H](Cc1ccc(-c2ccc(N[*:3])cc2)cc1)N[*:1])[*:2]; Bip(4'-CONHMe) = CNC(=O)c1ccc(-c2ccc(C[C@H](N)C(=O)O)cc2)cc1; Indazole3carbonyl(1-CH2COOH) = O=C(O)Cn1nc(C(=O)*)c2ccccc21; Bip(4'-NHAc) = CC(=O)Nc1ccc(-c2ccc(C[C@H](N)C(=O)O)cc2)cc1; X70 = O=C([C@H](Cc1ccc(-c2ccc(CN[*:3])cc2)cc1)N[*:1])[*:2]; X4 = N=C(NCCCc1cccc(N)c1)NCCC[C@@H](N[*:1])C(=O)[*:2]; X6 = N=C(NCCCCC(N)=O)NCCC[C@@H](N[*:1])C(=O)[*:2]; Ala(imidazol-2-yl) = N[C@@H](Cc1ncc[nH]1)C(=O)O; Ala(morpholin-4-yl) = N[C@@H](CN1CCOCC1)C(=O)O; Benzoyl(3-OCH2COOH) = O=C(O)COc1cccc(C(=O)*)c1; Benzoyl(4-OCH2COOH) = O=C(O)COc1ccc(C(=O)*)cc1; X41 = N=C(NCCCO)NCCC[C@@H](N[*:1])C(=O)[*:2]; X12 = N=C(NCCO)NCCC[C@@H](N[*:1])C(=O)[*:2]; Bip = N[C@@H](Cc1ccc(-c2ccccc2)cc1)C(=O)O; X86 = O=C(O)Cn1ccc2cc(C(=O)*)ccc21; Tic = O=C(O)[C@@H]1Cc2ccccc2CN1; Cha = N[C@@H](CC1CCCCC1)C(=O)O; Sar = CNCC(=O)O

What follows are compounds tested against TNFα (Homo sapiens, UniProt P01375) (assay: TNF-Induced HEK-Blue Assay). Details: not given.
Assay type: cell-based

Sequence of TNFα (P01375 77-233 limits assumed): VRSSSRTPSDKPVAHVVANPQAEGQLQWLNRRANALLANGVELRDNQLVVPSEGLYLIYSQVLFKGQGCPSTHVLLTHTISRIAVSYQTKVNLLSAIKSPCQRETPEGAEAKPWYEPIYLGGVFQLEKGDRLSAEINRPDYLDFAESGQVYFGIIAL

Row | Structure (SMILES) | IC50 [µM]
1 | CC(C)C[C@@H]1NC(=O)[C@H](CCCNC(=N)N)NC(=O)[C@H](C(C)C)NC(=O)[C@@H]2CCCN2C(=O)[C@H](C(C)C)NC(=O)[C@@H](CCCNC(=N)NCCO)NC(=O)[C@H](CC(=O)O)NC(=O)[C@@H]2CCCN2C(=O)CN(C)C(=O)[C@H](Cc2ccc(-c3ccc(NC(=O)c4nn(CC(=O)O)c5ccccc45)cc3)cc2)NC(=O)[C@H](Cc2ccc(-c3ccccc3)cc2)NC(=O)[C@H](CN2CCOCC2)NC(=O)CSC[C@@H](C(=O)NCC(N)=O)NC1=O [Example 387] ({CH2CO}-[Ala(morpholin-4-yl)][Bip][Bip(4'-NH)](Indazole3carbonyl(1-CH2COOH))[Sar]PD[X12]VPVRLCG-NH2; thioether N-13) | < 0.05
2 | CC(C)C[C@@H]1NC(=O)[C@H](CCCNC(=N)N)NC(=O)[C@H](C(C)C)NC(=O)[C@@H]2CCCN2C(=O)[C@H](C(C)C)NC(=O)[C@@H](CCCNC(=N)NCCCO)NC(=O)[C@H](CC(=O)O)NC(=O)[C@@H]2CCCN2C(=O)CN(C)C(=O)[C@H](Cc2ccc(-c3ccc(NC(=O)c4nn(CC(=O)O)c5ccccc45)cc3)cc2)NC(=O)[C@H](Cc2ccc(-c3ccccc3)cc2)NC(=O)[C@H](CN2CCOCC2)NC(=O)CSC[C@@H](C(=O)NCC(N)=O)NC1=O [Example 389] ({CH2CO}-[Ala(morpholin-4-yl)][Bip][Bip(4'-NH)](Indazole3carbonyl(1-CH2COOH))[Sar]PD[X41]VPVRLCG-NH2; thioether N-13) | < 0.05
3 | CC(C)C[C@@H]1NC(=O)[C@H](CCCNC(=N)N)NC(=O)[C@H](C(C)C)NC(=O)[C@@H]2CCCN2C(=O)[C@H](C(C)C)NC(=O)[C@@H](CCCNC(=N)NCCCCC(N)=O)NC(=O)[C@H](CC(=O)O)NC(=O)[C@@H]2CCCN2C(=O)CN(C)C(=O)[C@H](Cc2ccc(-c3ccc(NC(=O)c4nn(CC(=O)O)c5ccccc45)cc3)cc2)NC(=O)[C@H](Cc2ccc(-c3ccccc3)cc2)NC(=O)[C@H](CN2CCOCC2)NC(=O)CSC[C@@H](C(=O)NCC(N)=O)NC1=O [Example 391] ({CH2CO}-[Ala(morpholin-4-yl)][Bip][Bip(4'-NH)](Indazole3carbonyl(1-CH2COOH))[Sar]PD[X6]VPVRLCG-NH2; thioether N-13) | 0.05 to 0.2
4 | CC(C)C[C@@H]1NC(=O)[C@H](CCCNC(=N)N)NC(=O)[C@H](C(C)C)NC(=O)[C@@H]2CCCN2C(=O)[C@H](C(C)C)NC(=O)[C@@H](CCCNC(=N)NCCCc2cccc(N)c2)NC(=O)[C@H](CC(=O)O)NC(=O)[C@@H]2CCCN2C(=O)CN(C)C(=O)[C@H](Cc2ccc(-c3ccc(NC(=O)c4nn(CC(=O)O)c5ccccc45)cc3)cc2)NC(=O)[C@H](Cc2ccc(-c3ccccc3)cc2)NC(=O)[C@H](CN2CCOCC2)NC(=O)CSC[C@@H](C(=O)NCC(N)=O)NC1=O [Example 393] ({CH2CO}-[Ala(morpholin-4-yl)][Bip][Bip(4'-NH)](Indazole3carbonyl(1-CH2COOH))[Sar]PD[X4]VPVRLCG-NH2; thioether N-13) | < 0.05

Same assay, conditions: HEK-Blue-CD40L cells, NF-kB-driven secreted alkaline phosphatase reporter; TNFα 0.5 ng/ml; 18 h; read-out: TNF induced HEK-Blue assay IC50 value

Row | Structure (SMILES) | IC50 [µM]
5 | CNC(=O)c1ccc(-c2ccc(C[C@@H]3NC(=O)[C@H](CC4CCCCC4)NC(=O)CSC[C@@H](C(=O)NCC(N)=O)NC(=O)[C@H](CC(C)C)NC(=O)[C@H](Cc4ccc(O)cc4)NC(=O)[C@H](C(C)C)NC(=O)[C@@H]4Cc5ccccc5CN4C(=O)[C@H](C(C)C)NC(=O)[C@@H](CCCNC(=N)N)NC(=O)[C@H](CC(=O)O)NC(=O)[C@@H]4CCCN4C(=O)CN(C)C(=O)[C@H](Cc4ccc(-c5ccc(NC(C)=O)cc5)cc4)NC3=O)cc2)cc1 [Example 386] ({CH2CO}-[Cha][Bip(4'-CONHMe)][Bip(4'-NHAc)][Sar]PD[dR]V[Tic]VYLCG-NH2; thioether N-13) | 0.05 to 0.2
6 | CC(C)C[C@@H]1NC(=O)[C@H](CCCNC(=N)N)NC(=O)[C@H](C(C)C)NC(=O)[C@@H]2CCCN2C(=O)[C@H](C(C)C)NC(=O)[C@@H](CCCNC(=N)NCCO)NC(=O)[C@H](CC(=O)O)NC(=O)[C@@H]2CCCN2C(=O)CN(C)C(=O)[C@H](Cc2ccc(-c3ccc(NC(=O)c4nn(C)c5ccccc45)cc3)cc2)NC(=O)[C@H](Cc2ccc(-c3ccccc3)cc2)NC(=O)[C@H](CN2CCOCC2)NC(=O)CSC[C@@H](C(=O)NCC(N)=O)NC1=O [Example 388] ({CH2CO}-[Ala(morpholin-4-yl)][Bip][X5][Sar]PD[X12]VPVRLCG-NH2; thioether N-13) | < 0.05
7 | CC(C)C[C@@H]1NC(=O)[C@H](CCCNC(=N)N)NC(=O)[C@H](C(C)C)NC(=O)[C@@H]2CCCN2C(=O)[C@H](C(C)C)NC(=O)[C@@H](CCCNC(=N)NCCCCC(N)=O)NC(=O)[C@H](CC(=O)O)NC(=O)[C@@H]2CCCN2C(=O)CN(C)C(=O)[C@H](Cc2ccc(-c3ccc(NC(=O)c4nn(C)c5ccccc45)cc3)cc2)NC(=O)[C@H](Cc2ccc(-c3ccccc3)cc2)NC(=O)[C@H](CN2CCOCC2)NC(=O)CSC[C@@H](C(=O)NCC(N)=O)NC1=O [Example 392] ({CH2CO}-[Ala(morpholin-4-yl)][Bip][X5][Sar]PD[X6]VPVRLCG-NH2; thioether N-13) | 0.05 to 0.2
8 | CC(C)C[C@@H]1NC(=O)[C@H](CCCNC(=N)N)NC(=O)[C@H](C(C)C)NC(=O)[C@@H]2CCCN2C(=O)[C@H](C(C)C)NC(=O)[C@@H](CCCNC(=N)NCCCc2cccc(N)c2)NC(=O)[C@H](CC(=O)O)NC(=O)[C@@H]2CCCN2C(=O)CN(C)C(=O)[C@H](Cc2ccc(-c3ccc(NC(=O)c4nn(C)c5ccccc45)cc3)cc2)NC(=O)[C@H](Cc2ccc(-c3ccccc3)cc2)NC(=O)[C@H](CN2CCOCC2)NC(=O)CSC[C@@H](C(=O)NCC(N)=O)NC1=O [Example 394] ({CH2CO}-[Ala(morpholin-4-yl)][Bip][X5][Sar]PD[X4]VPVRLCG-NH2; thioether N-13) | 0.05 to 0.2
9 | CC[C@H](C)[C@@H]1NC(=O)[C@@H](CCCNC(=N)N)NC(=O)[C@H](CC(=O)O)NC(=O)[C@H](Cc2cnc[nH]2)NC(=O)CN(C)C(=O)[C@H](Cc2ccc(-c3ccc(NC(=O)c4ccc(OCC(=O)O)cc4)cc3)cc2)NC(=O)[C@H](Cc2ccc(-c3ccc(C(=O)NC)cc3)cc2)NC(=O)[C@H](CC2CCCCC2)NC(=O)CSC[C@@H](C(=O)NCC(N)=O)NC(=O)[C@H](CC(C)C)NC(=O)[C@H](Cc2cnc[nH]2)NC(=O)[C@H](C(C)C)NC(=O)[C@@H]2CCCN2C1=O [Example 395] ({CH2CO}-[Cha][Bip(4'-CONHMe)][Bip(4'-NH)](Benzoyl(4-OCH2COOH))[Sar]HD[dR]IPVHLCG-NH2; thioether N-13) | < 0.05
10 | CC[C@H](C)[C@@H]1NC(=O)[C@@H](CCCNC(=N)N)NC(=O)[C@H](CC(=O)O)NC(=O)[C@H](Cc2cnc[nH]2)NC(=O)CN(C)C(=O)[C@H](Cc2ccc(-c3ccc(C(=O)NC)cc3)cc2)NC(=O)[C@H](Cc2ccc(-c3ccccc3)cc2)NC(=O)[C@H](CC2CCCCC2)NC(=O)CSC[C@@H](C(=O)NCC(N)=O)NC(=O)[C@H](CC(C)C)NC(=O)[C@H](Cc2cnc[nH]2)NC(=O)[C@H](C(C)C)NC(=O)[C@@H]2CCCN2C1=O [Example 396] ({CH2CO}-[Cha][Bip][Bip(4'-CONHMe)][Sar]HD[dR]IPVHLCG-NH2; thioether N-13) | < 0.05
11 | CC[C@H](C)[C@@H]1NC(=O)[C@@H](CCCNC(=N)N)NC(=O)[C@H](CC(=O)O)NC(=O)[C@H](Cc2cnc[nH]2)NC(=O)CN(C)C(=O)[C@H](Cc2ccc(-c3ccccc3)cc2)NC(=O)[C@H](Cc2ccc(-c3ccc(C(=O)NC)cc3)cc2)NC(=O)[C@H](CC2CCCCC2)NC(=O)CSC[C@@H](C(=O)NCC(N)=O)NC(=O)[C@H](CC(C)C)NC(=O)[C@H](Cc2cnc[nH]2)NC(=O)[C@H](C(C)C)NC(=O)[C@@H]2CCCN2C1=O [Example 397] ({CH2CO}-[Cha][Bip(4'-CONHMe)][Bip][Sar]HD[dR]IPVHLCG-NH2; thioether N-13) | 0.05 to 0.2
12 | CC(C)C[C@@H]1NC(=O)[C@H](CCCNC(=N)N)NC(=O)[C@H](C(C)C)NC(=O)[C@@H]2CCCN2C(=O)[C@H](C(C)C)NC(=O)[C@@H](CCCNC(=N)N)NC(=O)[C@H](CC(=O)O)NC(=O)[C@@H]2CCCN2C(=O)CN(C)C(=O)[C@H](Cc2ccc(-c3ccc(NC(=O)c4ccc5c(ccn5CC(=O)O)c4)cc3)cc2)NC(=O)[C@H](Cc2ccc(-c3ccccc3)cc2)NC(=O)[C@H](CN2CCOCC2)NC(=O)CSC[C@@H](C(=O)NCC(N)=O)NC1=O [Example 398] ({CH2CO}-[Ala(morpholin-4-yl)][Bip][Bip(4'-NH)](X86)[Sar]PD[dR]VPVRLCG-NH2; thioether N-13) | < 0.05
13 | CC[C@H](C)[C@@H]1NC(=O)[C@@H]2CCCN2C(=O)[C@H]([C@@H](C)CC)NC(=O)[C@@H](CCCNC(=N)N)NC(=O)[C@H](CC(=O)O)NC(=O)[C@H](Cc2ccccc2)NC(=O)CN(C)C(=O)[C@H](Cc2ccc(-c3ccc(CNC(=O)c4cccc(OCC(=O)O)c4)cc3)cc2)NC(=O)[C@H](Cc2ccc(-c3ccccc3)cc2)NC(=O)[C@H](CC2CCCCC2)NC(=O)CSC[C@@H](C(=O)NCC(N)=O)NC(=O)[C@H](CC(C)C)NC(=O)[C@H](Cc2ncc[nH]2)NC1=O [Example 399] ({CH2CO}-[Cha][Bip][X70](Benzoyl(3-OCH2COOH))[Sar]FD[dR]IPI[Ala(imidazol-2-yl)]LCG-NH2; thioether N-13) | 0.2 to 2
14 | CC[C@H](C)[C@@H]1NC(=O)[C@@H]2CCCN2C(=O)[C@H]([C@@H](C)CC)NC(=O)[C@@H](CCCNC(=N)N)NC(=O)[C@H](CC(=O)O)NC(=O)[C@H](Cc2ccccc2)NC(=O)CN(C)C(=O)[C@H](Cc2ccc(-c3ccc(CNC(=O)c4nn(C)c5ccccc45)cc3)cc2)NC(=O)[C@H](Cc2ccc(-c3ccccc3)cc2)NC(=O)[C@H](CC2CCCCC2)NC(=O)CSC[C@@H](C(=O)NCC(N)=O)NC(=O)[C@H](CC(C)C)NC(=O)[C@H](Cc2cnc[nH]2)NC1=O [Example 400] ({CH2CO}-[Cha][Bip][X39][Sar]FD[dR]IPIHLCG-NH2; thioether N-13) | 0.2 to 2
15 | CC[C@H](C)[C@@H]1NC(=O)[C@@H]2CCCN2C(=O)[C@H]([C@@H](C)CC)NC(=O)[C@@H](CCCNC(=N)N)NC(=O)[C@H](CC(=O)O)NC(=O)[C@H](Cc2ccccc2)NC(=O)CN(C)C(=O)[C@H](Cc2ccc(-c3ccc(NC(=O)c4coc5ccccc45)cc3)cc2)NC(=O)[C@H](Cc2ccc(-c3ccccc3)cc2)NC(=O)[C@H](CC2CCCCC2)NC(=O)CSC[C@@H](C(=O)NCC(N)=O)NC(=O)[C@H](CC(C)C)NC(=O)[C@H](Cc2ncc[nH]2)NC1=O [Example 401] ({CH2CO}-[Cha][Bip][X47][Sar]FD[dR]IPI[Ala(imidazol-2-yl)]LCG-NH2; thioether N-13) | 0.05 to 0.2
